Data reported in patent US20230364079A1, “COMPOUND AS BRAIN-PERMEABLE BTK OR HER2 INHIBITOR, PREPARATION METHOD THEREFOR, AND USE THEREOF” (CHENGDU HYPERWAY PHARMACEUTICALS CO., LTD., priority 2020, published 2023).
pIC50: −log10 of the molar value.

How the values were obtained:
[1] = biological target: BTK mutation-type C481S kinase (Homo sapiens (Human), UniProt Q06187, C481S); assay: BTK-C481S kinase activity inhibition test in vitro (Caliper EZ Reader); type: biochemical
Protocol: (§1) In the tests on the activity of inhibiting BTK and HER2 kinase in vitro in the examples of the present disclosure, powder of the compound was dissolved in 100% DMSO to prepare a 10 mM stock solution and stored at-20° C. in the dark. […] In addition, the compounds were subjected to experiments such as liver microsome metabolic stability, rat PK, rat brain penetration rate, and drug efficacy model in the examples of the present disclosure.
(§2) Compound powders were dissolved in 100% DMSO to make 10 mM stock solutions, which were stored at -20° C. in the dark.
(§3) 2: Kinase Reaction Process
(§4) (1) Preparation of 1 × Kinase buffer.
(§5) (5) After centrifugation at 1000 rpm for 30 seconds, the reaction plate was shaken to mix well and incubated at room temperature for 10 min.
(§6) (6) A 5/3-fold final concentration of a mixed solution of ATP and Kinase substrate 2 was prepared with 1 × Kinase buffer.
(§7) (7) 15 µL of the mixed solution of ATP and substrate with 5/3-fold final concentration was added to start the reaction.
(§8) (8) The 384-well plate was centrifuged at 1000 rpm for 30 seconds, shaken to mix well, and incubated at room temperature for 10 min.
(§9) (9) 30 µL of a stop solution was added to stop the kinase reaction, and after centrifugation at 1000 rpm for 30 seconds, the plate was shaken to mix well;
(§10) (10) The conversion rate was read with Caliper EZ Reader.
(§11) where Conversion%_sample indicates the conversion rate reading of the sample; Conversion%_min is the average reading of the negative control wells, representing the conversion rate reading of the wells without enzyme activity; Conversion%_max is the average reading of the ratio of the positive control wells, representing the conversion rate reading of the wells without compound inhibition.
(§12) Dose-Response Curve Fitting
(§13) With the log value of the concentration as the X-axis, and the percentage inhibition rate as the Y-axis, the dose-effect curve was fitted using the log(inhibitor) vs. response-Variable slope of the analysis software GraphPad Prism 5, so as to determine the IC50 value of each compound on the enzyme activity.
(§14) The calculation formula was: […]

[2] = biological target: BTK wild-type kinase (Homo sapiens (Human), UniProt Q06187); assay: BTK kinase activity inhibition test in vitro (Caliper EZ Reader); type: biochemical
Sequence of BTK wild-type kinase (Q06187 whole entry): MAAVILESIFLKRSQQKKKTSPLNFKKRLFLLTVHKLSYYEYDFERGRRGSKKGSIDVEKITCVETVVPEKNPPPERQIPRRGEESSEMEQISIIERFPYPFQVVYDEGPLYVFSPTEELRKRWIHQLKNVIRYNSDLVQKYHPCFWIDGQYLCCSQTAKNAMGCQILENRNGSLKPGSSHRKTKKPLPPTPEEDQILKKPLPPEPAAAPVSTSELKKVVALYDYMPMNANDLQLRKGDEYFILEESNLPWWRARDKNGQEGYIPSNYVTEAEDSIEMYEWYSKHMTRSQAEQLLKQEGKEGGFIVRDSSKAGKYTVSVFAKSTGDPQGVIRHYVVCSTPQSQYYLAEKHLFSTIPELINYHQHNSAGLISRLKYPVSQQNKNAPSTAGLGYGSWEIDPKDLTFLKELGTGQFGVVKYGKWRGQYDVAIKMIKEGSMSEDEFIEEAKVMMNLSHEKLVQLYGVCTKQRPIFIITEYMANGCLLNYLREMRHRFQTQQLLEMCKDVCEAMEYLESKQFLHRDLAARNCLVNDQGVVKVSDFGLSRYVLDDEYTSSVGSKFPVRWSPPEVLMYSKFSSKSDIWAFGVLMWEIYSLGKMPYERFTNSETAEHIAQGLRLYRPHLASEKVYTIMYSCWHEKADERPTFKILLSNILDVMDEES
Protocol: as §1, §2, §3, §4, §5, §6, §7, §8, §9, §10, §11, §12, §13, §14

[3] = Liver microsome metabolic stability test, human; type: in vitro ADME; details: for half-life: read-out: T½
Protocol: (§15) 1: To the sample wells of T0, T5, T10, T20, T30, T60 and NCF60, 10 µL of the test or reference working solution and 80 µL of microsome working solution (hepatic microsome with a protein concentration of 0.5 mg/mL) were added, and to Blank60 well, only the microsome working solution was added. Then samples of the Blank60, T5, T10, T20, T30 and T60 other than T0 and NCF60 were placed in a 37° C. water bath and pre-incubated for about 10 min.
(§16) 2: To the T0 sample well, 300 µL of stop solution (containing 200 ng/mL tolbutamide and 200 ng/mL labetalol in acetonitrile solution) was added first, followed by 10 µL of NADPH regeneration system working solution.
(§17) 3: After the pre-incubation of Blank60, T5, T10, T20, T30 and T60 incubation plates, 10 µL of NADPH regeneration system working solution was added to each sample well to start the reaction, and 10 µL of 100 mM potassium phosphate buffer was added to the NCF60 sample well.
(§18) 4: After incubation for an appropriate time (such as 5, 10, 20, 30 and 60 min), to each test sample well and control well of the Blank60, T5, T10, T20, T30, T60 and NCF60 plates, 300 µL of stop solution was added to terminate the reaction.
(§19) 5: All sample plates were shaken to mix well and centrifuged at 4000 rpm for 20 min, and 100 µL of the supernatant of the test sample or control sample was taken and diluted with 300 µL of pure water for LC-MS/MS analysis.
(§20) 6: Data analysis: T½ and CLint(mic) (µL/min/mg) values were calculated according to the first-order elimination kinetics. The first-order elimination kinetics equation was: […]

[4] = Liver microsome metabolic stability test, rat; type: in vitro ADME; details: for half-life: read-out: T½
Protocol: as §15, §16, §17, §18, §19, §20

[5] = Pharmacokinetic test, oral, SD rats; type: in vivo; details: oral 10 mg/kg, plasma; for AUC(0-inf) / Cmax / half-life: rat; for Cmax: read-out: Cmax; for half-life: read-out: T½ (converted)
Protocol: Each test compound was administered orally (10 mg/kg, 3 rats in each group) to SD rats for pharmacokinetic study. […] Animals were fasted overnight before oral administration, and fed again after 4 h of administration. […] At each collection time point, 3 whole blood samples were collected at a the collection volume of about 0.2-0.3 mL. […] The collected plasma was stored at -20° C. before analysis. 20 µL of plasma sample was added into a 1.6 mL 96-well deep-well plate, added with 200 µL of working internal standard solution (the same volume of vehicle was added to the blank instead of internal standard), vortexed for 1 min, and centrifuged at 5800 rpm for 10 min. 100 µL of the supernatant was added to a 96-well injection plate for LC-MS/MS analysis.

[6] = liver microsomes, 0.5 mg/mL protein

Sequence of BTK mutation-type C481S kinase (Q06187 whole entry C481S): as the sequence (Q06187 whole entry) above, with C481S counted along it

| Compound | pIC50 [1] | pIC50 [2] | half-life [3, 6] | half-life [4, 6] | %Remaining (60 min) [3] | %Remaining (60 min) [4] | further results |
| --- | --- | --- | --- | --- | --- | --- | --- |
| Nc1cccc(NC(=O)c2ccc(-c3nc([C@@H]4CC[C@@H](CO)OC4)n4ccnc(N)c34)cc2)n1 (single isomer, unassigned) [Compound 2-A-P2] | 7.00 to 7.70 | 7.00 to 7.70 |  |  |  |  |  |
| COc1ccccc1C(=O)NCc1ccc(-c2nn(C3CCC(CO)OC3)c3ncnc(N)c23)cc1 (single isomer, unassigned) [Compound 60-A] |  | 7.70 to 8.30 | > 145 min | 143 min |  |  | microsomal CLint ([3]; liver microsomes): < 9.6 µL/min/mg; microsomal CLint ([4]; liver microsomes): 9.7 µL/min/mg |
| Nc1nccn2c(C3CC[C@@H](CO)OC3)nc(-c3ccc(C(=O)Nc4ccccn4)cc3F)c12 (stereo partly drawn) [Compound 1-B] | 7.70 to 8.30 | 7.00 to 7.70 |  |  | 99.9% | 63.7% | CLint [3]: <9.6 µL/min/mg; T½ ([3]; 0.5 mg/mL protein): >145 min; CLint [4]: 18.2 µL/min/mg; T½ ([4]; 0.5 mg/mL protein): 76.1 min |
| [2H]C([2H])([2H])Oc1cccc(Oc2ccc(-c3nc(C4CCC(CO)OC4)n4ccnc(N)c34)cc2)c1F (stereo not drawn) [Compound 7] | > 8.30 | > 8.30 |  |  |  |  |  |
| Nc1nccn2c(C3CCC(CO)OC3)nc(-c3ccc(Oc4cccc(F)c4F)cc3)c12 (stereo not drawn) [Compound 8] | > 8.30 | > 8.30 | 40.9 min | 20.8 min | 37.4% | 13.6% |  |
| Nc1nccn2c(C3CCC(CO)OC3)nc(-c3ccc(Oc4cccc(Cl)c4F)cc3)c12 (stereo not drawn) [Compound 9] |  |  | 28.6 min | 12.2 min | 24.5% | 3.2% |  |
| COc1cccc(Oc2ccc(-c3nc(C4CCC(CO)OC4)n4c(Cl)cnc(N)c34)cc2)c1F (stereo not drawn) [Compound 12] |  |  | 11.1 min | 11.8 min | 2.6% | 3.0% |  |
| Nc1nccn2c(C3CCC(CO)OC3)nc(-c3ccc(Oc4ccccc4)cc3)c12 (stereo not drawn) [Compound 16] |  | 7.70 to 8.30 | 37.5 min | 21.7 min | 31.8% | 14.6% |  |
| Nc1nccn2c(C3CCC(CO)OC3)nc(-c3ccc(Oc4ccccc4)cc3F)c12 (stereo not drawn) [Compound 17] | 7.70 to 8.30 | 7.70 to 8.30 |  |  |  |  |  |
| Nc1nccn2c(C3CCC(CO)OC3)nc(-c3ccc(Oc4cccc(C(F)(F)F)c4F)cc3)c12 (stereo not drawn) [Compound 19] |  | 7.70 to 8.30 | 29.4 min | 16.7 min | 23.5% | 7.9% |  |
| Cc1cccc(Oc2ccc(-c3nc(C4CCC(CO)OC4)n4ccnc(N)c34)cc2)c1F (stereo not drawn) [Compound 24] |  | > 8.30 | 18.5 min | 5.4 min | 9.7% | 0.1% |  |
| COc1ccccc1C(=O)NCc1ccc(-c2nn(C3CCC(CO)OC3)c3ncnc(N)c23)cc1 (stereo not drawn) [Compound 60-A] |  |  |  |  | 109.9% | 69% |  |
| Nc1nccn2c(C3CCC(CO)OC3)nc(-c3ccc(Oc4c(F)cccc4F)cc3)c12 (stereo not drawn) [Compound 64] |  | 7.70 to 8.30 | 37.7 min | 17 min | 31.7% | 8.5% |  |
| Cc1ccnc(NC(=O)c2ccc(-c3nc(C4CCC(CO)OC4)n4ccnc(N)c34)cc2)c1 (stereo not drawn) [Compound 70] |  | 7.70 to 8.30 | 105 min | 45.7 min | 77.7% | 37.3% |  |
| COc1cccc(Oc2ccc(-c3nc(C4CCC(CO)OC4)n4ccnc(N)c34)cc2)c1 (stereo not drawn) [Compound 101] |  | > 8.30 | > 145 min | 46.5 min | 81.1% | 39.5% | Cl [5]: 48.75 mL/min/kg; AUC(0-inf) [5]: 3670 ng·h/mL; Cmax [5]: 1770 ng/mL; half-life [5]: 75 min |
| COc1cccc(Oc2ccc(-c3nc(C45CCC(CO)(CC4)OC5)n4ccnc(N)c34)cc2)c1C#N [Compound 116] |  | > 8.30 |  |  |  |  | Cl [5]: 84.73 mL/min/kg; AUC(0-inf) [5]: 2010 ng·h/mL; Cmax [5]: 858 ng/mL; half-life [5]: 81 min |
| COc1cccc(Oc2ccc(-c3nc(C4CCC(CO)OC4)n4ccnc(N)c34)cc2)c1C(F)(F)F (stereo not drawn) [Compound 119] |  | > 8.30 |  |  |  |  | Cl [5]: 75.92 mL/min/kg; AUC(0-inf) [5]: 2250 ng·h/mL; Cmax [5]: 663 ng/mL; half-life [5]: 38.4 min |
| Nc1nccc2c1n(-c1ccc(Oc3ccccc3)cc1)c(=O)n2C1CCC(CO)OC1 (stereo not drawn) [Compound 120] | 7.70 to 8.30 | 7.00 to 7.70 |  |  |  |  |  |
| COc1cccc(C(F)(F)c2ccc(-c3nc(C4CCC(CO)OC4)n4ccnc(N)c34)cc2)c1 (stereo not drawn) [Compound 121] | 7.70 to 8.30 | 7.70 to 8.30 |  |  |  |  |  |
| Nc1nccn2c(C3CCC(CO)OC3)nc(-c3ccc(C(F)(F)c4cc(C(F)(F)F)ccn4)cc3)c12 (stereo not drawn) [Compound 124] | 6.00 to 7.00 | 6.00 to 7.00 |  |  |  |  |  |
| Nc1nccn2c(C34CCC(CO)(CC3)OC4)nc(-c3ccc(C(F)(F)c4cccc(Cl)c4F)cc3)c12 [Compound 152] |  | 6.00 to 7.00 | 30.2 min | 13.5 min | 25.4% | 25.8% | Cl [5]: 272.78 mL/min/kg; AUC(0-inf) [5]: 1330 ng·h/mL; Cmax [5]: 200 ng/mL; half-life [5]: 169 min |
| Nc1nccn2c(C34CCC(CO)(CC3)OC4)nc(-c3ccc(C(F)(F)c4ccccc4Cl)cc3)c12 [Compound 155] |  | 6.00 to 7.00 | 33.3 min | 22.3 min | 25.8% | 14.2% |  |
